Laboratory results as given in patent US20140171358A1, “ANTIMICROBIAL COMPOSITIONS COMPRISING DGLA AND NEOMYCIN SULFATE AND METHODS OF USE THEREOF” (Dignity Sciences Limited, priority 2012, published 2014).

Columns and labels:
Type in all cases: cell-based
C. albicans = assay: paper disc corrected zone of inhibition (CZOI) on Mueller Hinton agar
Experimental: (§1) The compounds tested in Example 1 were tested to determine their capacity to inhibit the growth of a variety of Gram-negative bacteria, Gram-positive bactgeria, fungi and yeast. In an exemplary method, Mueller Hinton agar plates were streaked with 500 μL of a 10^5 colony-forming units/mL culture and allowed to dry for at least one minute. A sterile paper disc (6 mm diameter) was then placed in the middle of each plate using sterile forceps. Twenty microliters of a solution of a known concentration of a test compound in filter-sterilized 95% ethanol were pipetted onto each test plate. Two streaked plates served as positive inhibitory controls and contained 6 mm sterile paper discs with standard tetracycline solutions. Two additional plates served as negative inhibition controls and each contained 6 mm sterile paper discs with 20 μL of filter-sterilized 95% ethanol. Two more plates served as positive growth controls and contained no paper disc or added antibacterial agent. The plates were incubated at 32.5±2° C. for 24±4 hours, after which the corrected zone of inhibition (“CZOI”) was determined as follows: For each plate, the length Y2 and width X2 of the test sample (paper disc) and length Y1 and width X1 of the clear zone were measured (FIG. 1). The CZOI was calculated from these values as shown by the equation below: [formula]

E. faecalis = assay: as above
Experimental: as §1

K. pneumoniae = assay: as above
Experimental: as §1

E. coli = assay: as above
Experimental: as §1

A. brasiliensis = assay: as above
Experimental: as §1

C. striatum = assay: as above
Experimental: as §1

S. aureus = assay: as above
Experimental: as §1

P. aeroginosa = assay: as above
Experimental: as §1

S. epidermidis = assay: as above
Experimental: as §1

P. acnes = assay: agar dilution method: growth index and MIC on P. acnes (single compounds and combinations)
Experimental: Several compounds including fatty acids such as DGLA, 15-OHEPA, and 15-HETrE were tested to determine their capacity to inhibit the growth of P. acnes. In an exemplary method, an agar dilution method was used to determine the minimum inhibitory concentration (MIC) of each tested compound. Briefly, the agar dilution method involved preparing a series of concentrations of each compound (e.g., nicotinamide, benzoyl peroxide, adapalene, metronidazole, DGLA, 15-OHEPA, and 15-HETrE) in a Reinforced Clostridial Agar (RCA) media that facilitates growth of P. acnes under anaerobic conditions. An inoculum of P. acnes was prepared by incubation of P. acnes for approximately seven days at 35-37° C. to achieve a ≧1.0 OD600 inoculum of P. acnes in RCM broth. A portion of this inoculum was then added to the surface of each plate as a 10 μL spot and incubated at 35-37° C. for 72 hours or more. Growth of P. acnes was then observed and compared to control plates in which no compound has been added, and positive inhibition plates prepared with erythromycin. […] The growth of P. acnes in the presence of nicotinamide, benzoyl peroxide, adapalene, metronidazole, DGLA, 15-OHEPA, and 15-HETrE was determined with varying concentrations of the compound (see, Table 2). Next, the MIC was determined as the concentration at which a marked reduction (+) occurs in the appearance of growth on the test plate (as per Clinical and Laboratory Standards Institute M11-A7). The compounds tested singly in Example 1 were tested in combination with one another to determine the capacity of the combination to inhibit the growth of P. acnes. In an exemplary method, the MIC was determined for each of the combination as described in Example 1. Briefly, test combinations included DGLA with nicotinamide, benzoyl peroxide, adapalene, or metronidazole; 15-HETrE with nicotinamide, benzoyl peroxide, adapalene, or metronidazole; and 15-OHEPA with nicotinamide, benzoyl peroxide, adapalene, or metronidazole. The tables below show the growth of P. acnes in the presence of 0.4 or 1.0 mg/mL DGLA with varying concentrations of nicotinamide, benzoyl peroxide, adapalene, or metronidazole (Table 3); the growth of P. acnes in the presence of 0.01 or 0.05 mg/mL 15-HETrE with varying concentrations of nicotinamide, benzoyl peroxide, adapalene, or metronidazole (Table 5); and the growth of P. acnes in the presence of 0.5 or 0.1 mg/mL 15-OHEPA with varying concentrations of nicotinamide, benzoyl peroxide, adapalene, or metronidazole (Table 7).

CCCCC/C=C\C/C=C\C/C=C\CCCCCCC(=O)O [DGLA, cis-8,11,14-eicosatrienoic acid]
Average CZOI (C. albicans; 0.6 mg/mL): 1 mm
Average CZOI (C. albicans; 0.8 mg/mL): 0.75 mm
Average CZOI (C. albicans; 1.0 mg/mL): 1.75 mm
Average CZOI (C. albicans; 1.2 mg/mL): 2 mm
Average CZOI (C. albicans; 1.4 mg/mL): 3 mm
Lowest Concentration With Observed Inhibition (C. albicans; C. albicans): 0.6 mg/mL
Most Effective Concentration Observed (C. albicans; C. albicans): 1.4 mg/mL
Average CZOI (E. faecalis; 0.6 mg/mL): 3.25 mm
Average CZOI (E. faecalis; 0.8 mg/mL): 3 mm
Average CZOI (E. faecalis; 1.0 mg/mL): 5 mm
Average CZOI (E. faecalis; 1.2 mg/mL): 2 mm
Average CZOI (E. faecalis; 1.4 mg/mL): 1.75 mm
Lowest Concentration With Observed Inhibition (E. faecalis; E. faecalis): 0.6 mg/mL
Most Effective Concentration Observed (E. faecalis; E. faecalis): 1.0 mg/mL
Average CZOI (K. pneumoniae; 0.6 mg/mL): 1.75 mm
Average CZOI (K. pneumoniae; 0.8 mg/mL): 2 mm
Average CZOI (K. pneumoniae; 1.0 mg/mL): 2.75 mm
Average CZOI (K. pneumoniae; 1.2 mg/mL): 2 mm
Average CZOI (K. pneumoniae; 1.4 mg/mL): 1.25 mm
Lowest Concentration With Observed Inhibition (K. pneumoniae; K. pneumoniae): 0.6 mg/mL
Most Effective Concentration Observed (K. pneumoniae; K. pneumoniae): 1.0 mg/mL
Average CZOI (E. coli; 0.6 mg/mL): 1 mm
Average CZOI (E. coli; 0.8 mg/mL): 1 mm
Average CZOI (E. coli; 1.0 mg/mL): 1.5 mm
Average CZOI (E. coli; 1.2 mg/mL): 0.5 mm
Average CZOI (E. coli; 1.4 mg/mL): 0.25 mm
Lowest Concentration With Observed Inhibition (E. coli; E. coli): 0.6 mg/mL
Most Effective Concentration Observed (E. coli; E. coli): 1.0 mg/mL
Average CZOI (A. brasiliensis; 0.6 mg/mL): 1.5 mm
Average CZOI (A. brasiliensis; 0.8 mg/mL): 4 mm
Average CZOI (A. brasiliensis; 1.0 mg/mL): 2.75 mm
Average CZOI (A. brasiliensis; 1.2 mg/mL): 1.75 mm
Average CZOI (A. brasiliensis; 1.4 mg/mL): 2.25 mm
Lowest Concentration With Observed Inhibition (A. brasiliensis; A. brasiliensis): 0.6 mg/mL
Most Effective Concentration Observed (A. brasiliensis; A. brasiliensis): 0.8 mg/mL
Average CZOI (C. striatum; 0.6 mg/mL): 3.75 mm
Average CZOI (C. striatum; 0.8 mg/mL): 2.75 mm
Average CZOI (C. striatum; 1.0 mg/mL): 2 mm
Average CZOI (C. striatum; 1.2 mg/mL): 4.75 mm
Average CZOI (C. striatum; 1.4 mg/mL): 2.75 mm
Lowest Concentration With Observed Inhibition (C. striatum; C. striatum): 0.6 mg/mL
Most Effective Concentration Observed (C. striatum; C. striatum): 1.2 mg/mL
Average CZOI (S. aureus; 0.6 mg/mL): 1.25 mm
Average CZOI (S. aureus; 0.8 mg/mL): 3 mm
Average CZOI (S. aureus; 1.0 mg/mL): 3 mm
Average CZOI (S. aureus; 1.2 mg/mL): 3 mm
Average CZOI (S. aureus; 1.4 mg/mL): 2 mm
Lowest Concentration With Observed Inhibition (S. aureus; S. aureus): 0.6 mg/mL
Most Effective Concentration Observed (S. aureus; S. aureus): 0.8 mg/mL
Average CZOI (P. aeroginosa; 0.6 mg/mL): 1 mm
Average CZOI (P. aeroginosa; 0.8 mg/mL): 1 mm
Average CZOI (P. aeroginosa; 1.0 mg/mL): 1 mm
Average CZOI (P. aeroginosa; 1.2 mg/mL): 1 mm
Average CZOI (P. aeroginosa; 1.4 mg/mL): 1 mm
Lowest Concentration With Observed Inhibition (P. aeroginosa; P. aeroginosa): 0.6 mg/mL
Most Effective Concentration Observed (P. aeroginosa; P. aeroginosa): 0.6 mg/mL
Average CZOI (S. epidermidis; 0.6 mg/mL): 4.75 mm
Average CZOI (S. epidermidis; 0.8 mg/mL): 3.25 mm
Average CZOI (S. epidermidis; 1.0 mg/mL): 6.5 mm
Average CZOI (S. epidermidis; 1.2 mg/mL): 3 mm
Average CZOI (S. epidermidis; 1.4 mg/mL): 1 mm
Lowest Concentration With Observed Inhibition (S. epidermidis; S. epidermidis): 0.6 mg/mL
Most Effective Concentration Observed (S. epidermidis; S. epidermidis): 1.0 mg/mL
effect on growth of P. acnes on its own (P. acnes; 0.4 mg/ml): no effect on its own
MIC (P. acnes; Cutibacterium acnes, compound alone, read-out: MIC (mg/mL) as per P-11-0007 or P-11-0008 Addendum A): 0.4 to 0.6 mg/mL
